Values after ≈ are worked out from the molar mass of the structure shown.
What was measured:
[1] = Thermodynamic solubility of the polymorphic forms in organic solvents (HPLC quantification); type: physicochemical
Experimental: The thermodynamic solubility of FORM 1, FORM 2, FORM 4, and FORM 6 of 1,6-Bis [3-(3-carboxymethylphenyl)-4-(2-α-D-mannopyranosyloxy)-phenyl] hexane (compound of formula (I)) was determined in several organic solvents by suspending sufficient compound to give a maximum final concentration. Quantification was by reverse phase HPLC with gradient solution with reference to a standard solution of FORM B of the compound of formula (I) at 0.25 mg/ml. The suspensions were equilibrated at 27° C. for 24 hours with shaking. All suspensions were filtered though a glass fibre C filter. The filtrate was then diluted by an appropriate factor in 50:50 ethanol:water apart from isopropyl myristate which was diluted in ethanol to avoid emulsion formation.
Solubilities were calculated using the peak areas determined by the peak found at the same retention time as the principal peak in the standard injection.

[2] = Thermodynamic solubility of the polymorphic forms in water (shake flask technique, UV); type: physicochemical; conditions: pure water, over night at 25° C., triplicate
Experimental: The thermodynamic solubility of FORM 1, FORM 2, and FORM 3 of 1,6-Bis [3-(3-carboxymethylphenyl)-4-(2-α-D-mannopyranosyloxy)-phenyl] hexane (compound of formula (I)) was determined in water by employing the shake flask technique. The sample was added to pure water in a Safelock-tube (Eppendorf, Germany) under vigorous shaking until a white precipitate was formed. The saturated solution was incubated over night at 25° C. in an Eppendorf Thermomixer operated at 700 RPM. The suspension was cleared by centrifugation at 13.000 RPM at room temperature, and the supernatant was carefully collected. The supernatant was further purified by vacuum-filtration through a Millipore solubility filter plate (Millipore, Molsheim, France).
The UV absorption of the filtrate was measured against pure water using a Spectramax250 (Molecular Devices, Sunnyvale, Calif.) operated with Softmax Pro v. 4.8 software, using the application “Mscreen solubility quantify” in the ADME package. The sample concentration was calculated using a 5-point linear calibration line of the compound of formula (I) in acetonitrile:pure water (1:1 vol:vol). Measurements have been performed in triplicate.

[3] = Triacetin, equilibrated at 27° C. for 24 hours with shaking
[4] = PEG 300, equilibrated at 27° C. for 24 hours with shaking
[5] = ethanol, equilibrated at 27° C. for 24 hours with shaking
[6] = equilibrated at 27° C. for 24 hours with shaking

## O=C(O)Cc1cccc(-c2cc(CCCCCCc3ccc(O[C@H]4O[C@H](CO)[C@@H](O)[C@H](O)[C@@H]4O)c(-c4cccc(CC(=O)O)c4)c3)ccc2O[C@H]2O[C@H](CO)[C@@H](O)[C@H](O)[C@@H]2O)c1 [FORM 4, 1,6-Bis [3-(3-carboxymethylphenyl)-4-(2-α-D-mannopyranosyloxy)-phenyl] hexane]
[1]; PEG 300, equilibrated at 27° C. for 24 hours with shaking, listed as 4
  Solubility in PEG 300 (Polyethylene glycol 300): 159 mg/mL (≈ 184 mM)
[1]; [3]
  Solubility in Triacetin (glycerin triacetate): 0.02 mg/mL (≈ 0.0232 mM)
[1]; ethanol, compared with FORM 1, 2, 4, 6
  Solubility ranking among the FORMS in ethanol (in words): highest solubility
[1]; ethanol, equilibrated at 27° C. for 24 hours with shaking, listed as 4
  Solubility in EtOH (Ethanol): 48 mg/mL (≈ 55.6 mM)
[1]; equilibrated at 27° C. for 24 hours with shaking, listed as 4
  Solubility in IPA (Isopropyl alcohol): 1.2 mg/mL (≈ 1.39 mM)
[1]; propylene glycol, equilibrated at 27° C. for 24 hours with shaking, listed as 4
  Solubility in Propylene Glycol: 165 mg/mL (≈ 191 mM)

## O=C(O)Cc1cccc(-c2cc(CCCCCCc3ccc(O[C@H]4O[C@H](CO)[C@@H](O)[C@H](O)[C@@H]4O)c(-c4cccc(CC(=O)O)c4)c3)ccc2O[C@H]2O[C@H](CO)[C@@H](O)[C@H](O)[C@@H]2O)c1 [FORM 1, 1,6-Bis [3-(3-carboxymethylphenyl)-4-(2-α-D-mannopyranosyloxy)-phenyl] hexane]
[1]; PEG 300, compared with other FORMS
  Solubility ranking among the FORMS in PEG 300 (in words): highest solubility
[1]; [4]
  Solubility in PEG 300 (Polyethylene glycol 300): 205 mg/mL (≈ 238 mM)
[1]; Triacetin, compared with other FORMS
  Solubility ranking among the FORMS in Triacetin (in words): highest solubility
[1]; [3]
  Solubility in Triacetin (glycerin triacetate): 0.056 mg/mL (≈ 0.0649 mM)
[1]; [5]
  Solubility in EtOH (Ethanol): 4.2 mg/mL (≈ 4.87 mM)
[1]; [6]
  Solubility in IPA (Isopropyl alcohol): 3.9 mg/mL (≈ 4.52 mM)
[1]; propylene glycol, 27 °C, organic solvent or mixture, thermodynamic from solid, equilibrated at 27° C. for 24 hours with shaking
  solubility at 24 h: 199 mg/mL (≈ 231 mM)
[1]; propylene glycol, compared with other FORMS
  Solubility ranking among the FORMS in propylene glycol (in words): highest solubility
[2]; 25 °C, water, thermodynamic from solid
  solubility: 0.022 mg/mL (≈ 0.0255 mM)

## O=C(O)Cc1cccc(-c2cc(CCCCCCc3ccc(O[C@H]4O[C@H](CO)[C@@H](O)[C@H](O)[C@@H]4O)c(-c4cccc(CC(=O)O)c4)c3)ccc2O[C@H]2O[C@H](CO)[C@@H](O)[C@H](O)[C@@H]2O)c1 [FORM 2, 1,6-Bis [3-(3-carboxymethylphenyl)-4-(2-α-D-mannopyranosyloxy)-phenyl] hexane]
[1]; [4]
  Solubility in PEG 300 (Polyethylene glycol 300): 102 mg/mL (≈ 118 mM)
[1]; [3]
  Solubility in Triacetin (glycerin triacetate): 0.0083 mg/mL (≈ 0.00962 mM)
[1]; [5]
  Solubility in EtOH (Ethanol): 4.2 mg/mL (≈ 4.87 mM)
[1]; [6]
  Solubility in IPA (Isopropyl alcohol): 0.52 mg/mL (≈ 0.603 mM)
[1]; propylene glycol, equilibrated at 27° C. for 24 hours with shaking
  Solubility in Propylene Glycol: 104 mg/mL (≈ 121 mM)
[2]
  Solubility in water: 0.015 mg/mL (≈ 0.0174 mM)

## O=C(O)Cc1cccc(-c2cc(CCCCCCc3ccc(O[C@H]4O[C@H](CO)[C@@H](O)[C@H](O)[C@@H]4O)c(-c4cccc(CC(=O)O)c4)c3)ccc2O[C@H]2O[C@H](CO)[C@@H](O)[C@H](O)[C@@H]2O)c1 [FORM 3, 1,6-Bis [3-(3-carboxymethylphenyl)-4-(2-α-D-mannopyranosyloxy)-phenyl] hexane]
[2]
  Solubility in water: 0.014 mg/mL (≈ 0.0162 mM)

## O=C(O)Cc1cccc(-c2cc(CCCCCCc3ccc(O[C@H]4O[C@H](CO)[C@@H](O)[C@H](O)[C@@H]4O)c(-c4cccc(CC(=O)O)c4)c3)ccc2O[C@H]2O[C@H](CO)[C@@H](O)[C@H](O)[C@@H]2O)c1 [FORM 6, 1,6-Bis [3-(3-carboxymethylphenyl)-4-(2-α-D-mannopyranosyloxy)-phenyl] hexane]
[1]; IPA, compared with FORM 1, 2, 4, 6
  Solubility ranking among the FORMS in IPA (in words): highest solubility
[1]; PEG 300, equilibrated at 27° C. for 24 hours with shaking, listed as 6
  Solubility in PEG 300 (Polyethylene glycol 300): 122 mg/mL (≈ 141 mM)
[1]; ethanol, equilibrated at 27° C. for 24 hours with shaking, listed as 6
  Solubility in EtOH (Ethanol): 20 mg/mL (≈ 23.2 mM)
[1]; equilibrated at 27° C. for 24 hours with shaking, listed as 6
  Solubility in IPA (Isopropyl alcohol): 27 mg/mL (≈ 31.3 mM)
[1]; propylene glycol, equilibrated at 27° C. for 24 hours with shaking, listed as 6
  Solubility in Propylene Glycol: 170 mg/mL (≈ 197 mM)
